Source: publication PMC5415745, “Drug-transporter mediated interactions between anthelminthic and antiretroviral drugs across the Caco-2 cell monolayers” (BMC Pharmacology & Toxicology, 2017)
“And” between values parts separate entries of the source, which are not always exact repeats. Identical values can stand only once.

Columns and labels:
[1] = Bidirectional (AP→BL, BL→AP) drug transport across Caco-2 cell monolayers in transwells: cumulative transport, Papp, efflux ratio; HPLC or radiolabeled assay; conditions: human
Protocol: (§1) The monolayers used were of between passage 20 and 65 after 15 days of growth. Each experiment was performed in duplicate using two six well-transwell culture plates. The cells were trypsinized as described earlier, and after centrifugation the pellet re-suspended in fresh DMEM (+15%), and the cells counted using a cell counter. A volume of DMEM was added enough to give a cell count of 2 × 10^6 cells per ml, and cells were seeded on the transwell culture plates at a density of 2 × 10^4 cells/cm^2 (~ 100,000 cells per well, since insert membrane growth area = 4.67 cm^2). The plates were then incubated at 37°C and 10% CO2 in a humidified chamber and the media changed every 2-3 days, by aspirating using a suction pump and replacing with an equal volume of DMEM. Transport experiments were conducted 15 to 20 days after seeding. The TEER across the cell monolayers was monitored using a Millicell-ERS in order to assess cell monolayer integrity and the monolayers considered appropriate for the experiment when the TEER values were typically above 500 cm^2 [49, 70].
(§2) Prior to transport studies, each monolayer was washed and equilibrated with the transport medium (DMEM without FBS). The medium was removed from all AP and BL compartments of the transwells and replaced with 2 ml of the transport medium (DMEM alone), to both compartments and equilibrated for 1 h (37°C, 10% CO2 incubator), after which the TEER was re-assessed and labeled. The medium was then removed from both compartments and replaced with an equal volume of pre-warmed medium containing the compound of interest at the appropriate concentration. For the AP → BL transport, 2 ml of medium containing the desired drug was placed in the AP chamber and 2 ml of the medium alone in the BL chamber, whereas 2 ml of medium containing the drug was placed in the BL and 2 ml of medium on the AP chamber for the BL → AP transport [71]. The effect of the second drug was then assessed by adding the medium containing the original drug and the drug under study to the AP side for AP → BL transport with the medium containing the original drug alone in the BL chamber, and vice-versa for the BL → AP transport. Transport in each direction was done in triplicate. The transwell plates were then incubated (37°C, 10% CO2 incubator), and 100μl of the samples from the AP and BL compartments were taken at 60, 120, 180 and 240 min and quantified either by HPLC method described earlier [45], or by the use of a liquid scintillating counter depending on the drug under study. The HPLC method involved liquid - liquid extraction followed by ultra-high performance liquid chromatography using a Hypurity C18 column and ultraviolet detection set at a wavelength of 215 nm. The mobile phase consisted of ammonium formate, acetonitrile and methanol (57:38:5 v/v). Separation was facilitated via isocratic elution at a flow rate of 1.5 ml/min. For HPLC assays, the concentration used for each drug was 20μg/ml. The concentrations that offered the best detection were selected for radiolabeled assay. […] The integrity of the CCM during the experiment was monitored by measuring the TEER at the beginning (0 min) and the end of the experiment (240min).
(§3) The results were expressed as apparent permeability coefficient (Papp, unit: cms^-1), the amount of compound transported per second. Papp values were calculated for both AP to BL (PappAtoB), and BL to AP (PappBtoA) movement of the compound. Papp was calculated using the following equation [52, 72]: • Papp (cm/s) = (dQ/dt) x (1/(ACO) • dQ/dt = Steady-state flux (dpm s^-1 or μmol s^-1) • A = Surface area of the filter (cm^2) • CO = Initial concentration in the donor chamber (dpm litre ^-1 or μM)
(§4) The quotient of secretory permeability and absorptive permeability (PappBL-AP/PappAP-BL) constitutes the efflux ratio, while the reverse (PappAP-BL/PappBL-AP) is the uptake ratio [71].

Caco-2 cell monolayers = experiment: as above; conditions: for Apical to basal transport / Basal to apical transport: individual experiments 1-3; for Apical to basal transport Mean / Basal to apical transport Mean: n=3
Protocol: as §1, §2, §3, §4

[2] = [3H] NVP alone, after 60 min, samples 1-3
[3] = labelled drug is the interacting drug

Cc1ccnc2c1NC(=O)c1cccnc1N2C1CC1 [NVP, nevirapine]
efflux ratio at 60 min ([1]; Caco-2, Efflux ratio ER, [3H] NVP alone, after 60 min, samples 1-3): 1.03 | Papp A→B at 60 min ([1]; Caco-2, Papp AP → BL, mean (n=3) after 60 min, drug A alone, or label 'A + B' = transport of A in presence of interacting drug B, concentrations per Table 1): 42.7 ×10⁻⁶ cm/s | Papp B→A at 60 min ([1]; Caco-2, Papp BL → AP, mean (n=3) after 60 min, drug A alone, or label 'A + B' = transport of A in presence of interacting drug B, concentrations per Table 1): 39.5 ×10⁻⁶ cm/s | Papp A→B at 60 min ([1]; Caco-2, PappAB Papp, [3H] NVP alone, after 60 min, samples 1-3): 52.9 ×10⁻⁶ cm/s | Papp B→A at 60 min ([1]; Caco-2, PappBA Papp, [3H] NVP alone, after 60 min, samples 1-3): 54.7 ×10⁻⁶ cm/s | Apical to basal transport (Caco-2 cell monolayers; [3H] NVP alone, 60 min): 78.8 pmol and 80.8 pmol and 79.4 pmol | Basal to apical transport (Caco-2 cell monolayers; [3H] NVP alone, 60 min): 59.7 pmol and 67.9 pmol and 77.2 pmol | Apical to basal transport Mean (Caco-2 cell monolayers; [3H] NVP alone, 60 min): 79.68 pmol | Basal to apical transport Mean (Caco-2 cell monolayers; [3H] NVP alone, 60 min): 68.27 pmol | Apical to basal transport (Caco-2 cell monolayers; [3H] NVP alone, 120 min): 111.5 pmol and 123.2 pmol and 109.9 pmol | Basal to apical transport (Caco-2 cell monolayers; [3H] NVP alone, 120 min): 81.9 pmol and 91.5 pmol and 105.1 pmol | Apical to basal transport Mean (Caco-2 cell monolayers; [3H] NVP alone, 120 min): 114.88 pmol | Basal to apical transport Mean (Caco-2 cell monolayers; [3H] NVP alone, 120 min): 92.84 pmol | Apical to basal transport (Caco-2 cell monolayers; [3H] NVP alone, 180 min): 116.3 pmol and 120.3 pmol and 122.0 pmol | Basal to apical transport (Caco-2 cell monolayers; [3H] NVP alone, 180 min): 92.9 pmol and 107.5 pmol and 118.9 pmol | Apical to basal transport Mean (Caco-2 cell monolayers; [3H] NVP alone, 180 min): 119.53 pmol | Basal to apical transport Mean (Caco-2 cell monolayers; [3H] NVP alone, 180 min): 106.41 pmol | Apical to basal transport (Caco-2 cell monolayers; [3H] NVP alone, 240 min): 123.9 pmol and 122.5 pmol and 120.2 pmol | Basal to apical transport (Caco-2 cell monolayers; [3H] NVP alone, 240 min): 98.8 pmol and 112.2 pmol and 132.2 pmol | Apical to basal transport Mean (Caco-2 cell monolayers; [3H] NVP alone, 240 min): 122.19 pmol | Basal to apical transport Mean (Caco-2 cell monolayers; [3H] NVP alone, 240 min): 114.39 pmol | Apical to basal transport Conc. Apical (Caco-2 cell monolayers; [2]): 177.1 pmol and 196.6 pmol and 189.3 pmol | Basal to apical transport Conc. Basal (Caco-2 cell monolayers; [2]): 129.9 pmol and 207.3 pmol and 202.9 pmol | Efflux ratio ER (Caco-2 cell monolayers; [2]): 0.80 | PappAB Papp (Caco-2 cell monolayers; [2]): 40.3 ×10⁻⁶ cm/s and 34.9 ×10⁻⁶ cm/s | PappBA Papp (Caco-2 cell monolayers; [2]): 32.1 ×10⁻⁶ cm/s and 31.7 ×10⁻⁶ cm/s | Effect on the transport of IVM (Caco-2 cell monolayers; [3]): increased | Effect on the transport of PZQ (Caco-2 cell monolayers; [3]): did not affect
